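Briefly, cells in 96-well plates were exposed to five compound concentrations for 48 h, and endpoints were estimated by linear interpolation. TGI is the concentration that stops growth completely.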
How the values were obtained:
Assay in all cases: DTP human tumour cell line panel, 48 h
[1] = system: ACHN renal
[2] = system: SF-268 CNS
[3] = system: HS 578T breast
[4] = system: MDA-MB-435
[5] = system: NCI-H226 lung
[6] = system: SN12C renal
[7] = system: NCI/ADR-RES ovarian
[8] = system: SW-620 colon
[9] = system: OVCAR-4 ovarian
[10] = system: HCT-15 colon
[11] = system: TK-10 renal
[12] = system: K-562 leukemia
[13] = system: MOLT-4 leukemia
[14] = system: COLO 205 colon
[15] = system: SR leukemia
[16] = system: CCRF-CEM leukemia
[17] = system: DU-145 prostate
[18] = system: NCI-H522 lung
[19] = system: SK-MEL-28 melanoma
[20] = system: KM12 colon
[21] = system: OVCAR-8 ovarian
[22] = system: PC-3 prostate
[23] = system: UO-31 renal
[24] = system: SF-539 CNS
[25] = system: NCI-H23 lung
[26] = system: UACC-257 melanoma
[27] = system: HCC-2998 colon
[28] = system: MALME-3M melanoma
[29] = system: A498 renal
[30] = system: HOP-62 NSCLC
[31] = system: CAKI-1 renal
[32] = system: SK-MEL-5 melanoma
[33] = system: UACC-62 melanoma
[34] = system: SNB-19 CNS
[35] = system: SF-295 CNS
[36] = system: BT-549 breast
[37] = system: RPMI-8226 leukemia
[38] = system: HT29 colon
[39] = system: OVCAR-5 ovarian
[40] = system: OVCAR-3 ovarian
[41] = system: LOX IMVI melanoma
[42] = system: 786-0 renal
[43] = system: RXF 393 renal
[44] = system: U251 CNS
[45] = system: MCF7 breast
[46] = system: A549 NSCLC
[47] = system: T-47D breast
[48] = system: EKVX NSCLC
[49] = system: MDA-MB-231 breast
[50] = system: NCI-H460 lung
[51] = system: HOP-92 NSCLC
[52] = system: SK-MEL-2 melanoma
[53] = system: MDA-N
[54] = system: HCT-116 colon
[55] = system: SK-OV-3 ovarian
[56] = system: M14 melanoma
[57] = system: SNB-75 CNS
[58] = system: IGROV1 ovarian
[59] = system: HL-60(TB) leukemia

In the case of `CCOC(=O)c1c(N2CCCC2)[nH]c(=O)c(C(c2cccs2)c2c(O)c(C(=O)OCC)c(N3CCCC3)[nH]c2=O)c1O`, the TGI [1] is reported as greater than 100 µM, the TGI [2] is reported as greater than 100 µM and the TGI [3] is reported as greater than 100 µM. For the same compound, the TGI [4] was greater than 100 µM, the TGI [5] was greater than 100 µM and the TGI [6] was greater than 100 µM. It also gave a TGI [7] greater than 100 µM, a TGI [8] greater than 100 µM and a TGI [9] greater than 100 µM. For the same compound, the TGI [10] was greater than 100 µM, the TGI [11] was greater than 100 µM and the TGI [12] was greater than 100 µM. For the same compound, the TGI [13] was greater than 100 µM, the TGI [14] was greater than 100 µM and the TGI [15] was greater than 100 µM. It also gave a TGI [16] greater than 100 µM, a TGI [17] greater than 100 µM and a TGI [18] greater than 100 µM. The TGI [19] was greater than 100 µM, the TGI [20] was greater than 100 µM and the TGI [21] was greater than 100 µM. The TGI [22] was greater than 100 µM, the TGI [23] was greater than 100 µM and the TGI [24] was greater than 100 µM. For the same compound, the TGI [25] was greater than 100 µM, the TGI [26] was greater than 100 µM and the TGI [27] was greater than 100 µM. It also gave a TGI [28] greater than 100 µM, a TGI [29] greater than 100 µM and a TGI [30] greater than 100 µM. The TGI [31] was greater than 100 µM, the TGI [32] was greater than 100 µM and the TGI [33] was greater than 100 µM. It also gave a TGI [34] greater than 100 µM, a TGI [35] greater than 100 µM and a TGI [36] greater than 100 µM. For the same compound, the TGI [37] was greater than 100 µM, the TGI [38] was greater than 100 µM and the TGI [39] was greater than 100 µM. The TGI [40] was greater than 100 µM, the TGI [41] was greater than 100 µM and the TGI [42] was greater than 100 µM. It also gave a TGI [43] greater than 100 µM, a TGI [44] greater than 100 µM and a TGI [45] greater than 100 µM. The TGI [46] was greater than 100 µM, the TGI [47] was greater than 100 µM and the TGI [48] was greater than 100 µM. For the same compound, the TGI [49] was greater than 100 µM, the TGI [50] was greater than 100 µM and the TGI [51] was greater than 100 µM. The TGI [52] was greater than 100 µM, the TGI [53] was greater than 100 µM and the TGI [54] was greater than 100 µM. The TGI [55] was greater than 100 µM, the TGI [56] was greater than 100 µM and the TGI [57] was greater than 100 µM.
Compound `CCc1nc(N)nc(N)c1-c1ccc(Cl)c(N=CN(C)C)c1` has a TGI [1] greater than 100 µM, a TGI [2] greater than 100 µM and a TGI [3] greater than 100 µM. For the same compound, the TGI [4] was greater than 100 µM, the TGI [5] was greater than 100 µM and the TGI [6] was greater than 100 µM. For the same compound, the TGI [7] was greater than 100 µM, the TGI [8] was greater than 100 µM and the TGI [9] was greater than 100 µM. The TGI [10] was greater than 100 µM, the TGI [11] was greater than 100 µM and the TGI [12] was greater than 100 µM. For the same compound, the TGI [13] was greater than 100 µM, the TGI [14] was greater than 100 µM and the TGI [15] was greater than 83.4 µM. It also gave a TGI [58] greater than 100 µM, a TGI [16] of 97.6 µM and a TGI [17] greater than 100 µM. The TGI [18] was 62.7 µM, the TGI [19] was greater than 100 µM and the TGI [20] was greater than 100 µM. It also gave a TGI [21] greater than 100 µM, a TGI [22] greater than 100 µM and a TGI [23] greater than 100 µM. It also gave a TGI [24] greater than 100 µM, a TGI [25] greater than 81.5 µM and a TGI [26] greater than 100 µM. For the same compound, the TGI [27] was greater than 100 µM, the TGI [29] was greater than 100 µM and the TGI [30] was greater than 100 µM. For the same compound, the TGI [31] was greater than 100 µM, the TGI [32] was greater than 100 µM and the TGI [33] was greater than 100 µM. For the same compound, the TGI [34] was greater than 89.3 µM, the TGI [35] was greater than 100 µM and the TGI [36] was greater than 100 µM. The TGI [37] was greater than 100 µM, the TGI [38] was greater than 100 µM and the TGI [39] was greater than 100 µM. For the same compound, the TGI [40] was greater than 100 µM, the TGI [41] was greater than 100 µM and the TGI [42] was greater than 100 µM. For the same compound, the TGI [43] was greater than 100 µM, the TGI [59] was greater than 90.3 µM and the TGI [44] was greater than 100 µM. The TGI [45] was greater than 100 µM, the TGI [46] was greater than 100 µM and the TGI [47] was greater than 100 µM. For the same compound, the TGI [48] was greater than 100 µM, the TGI [49] was greater than 100 µM and the TGI [50] was greater than 95.2 µM. It also gave a TGI [51] greater than 100 µM, a TGI [52] greater than 100 µM and a TGI [53] greater than 100 µM. The TGI [54] was greater than 100 µM, the TGI [55] was greater than 100 µM and the TGI [56] was greater than 100 µM. For the same compound, the TGI [57] was greater than 100 µM.
`Cc1cc2c(cc1N)C(C)C1(CCC(=O)N2Cc2ccccc2)OCCO1` (configuration not stated) gave a TGI [1] greater than 100 µM, a TGI [2] greater than 100 µM and a TGI [3] greater than 100 µM. The TGI [4] was greater than 100 µM, the TGI [5] was greater than 100 µM and the TGI [6] was greater than 100 µM. For the same compound, the TGI [7] was greater than 100 µM, the TGI [8] was greater than 100 µM and the TGI [9] was greater than 100 µM. For the same compound, the TGI [10] was greater than 100 µM, the TGI [11] was greater than 100 µM and the TGI [13] was greater than 100 µM. The TGI [15] was greater than 100 µM, the TGI [58] was greater than 100 µM and the TGI [17] was greater than 100 µM. For the same compound, the TGI [18] was greater than 100 µM, the TGI [19] was greater than 100 µM and the TGI [20] was greater than 100 µM. For the same compound, the TGI [21] was greater than 100 µM, the TGI [22] was greater than 100 µM and the TGI [23] was greater than 100 µM. For the same compound, the TGI [24] was greater than 100 µM, the TGI [25] was greater than 100 µM and the TGI [26] was greater than 100 µM. The TGI [27] was greater than 100 µM, the TGI [28] was greater than 100 µM and the TGI [29] was greater than 100 µM. For the same compound, the TGI [30] was greater than 100 µM, the TGI [31] was greater than 100 µM and the TGI [32] was greater than 100 µM. For the same compound, the TGI [33] was greater than 100 µM, the TGI [34] was greater than 100 µM and the TGI [35] was greater than 100 µM. The TGI [36] was greater than 100 µM, the TGI [37] was greater than 100 µM and the TGI [38] was greater than 100 µM. For the same compound, the TGI [39] was greater than 100 µM, the TGI [40] was greater than 100 µM and the TGI [41] was greater than 100 µM. For the same compound, the TGI [42] was greater than 100 µM, the TGI [44] was greater than 100 µM and the TGI [45] was greater than 100 µM. It also gave a TGI [46] greater than 100 µM, a TGI [47] greater than 100 µM and a TGI [48] greater than 100 µM. For the same compound, the TGI [49] was greater than 100 µM, the TGI [50] was greater than 100 µM and the TGI [51] was greater than 100 µM. The TGI [52] was greater than 100 µM, the TGI [53] was greater than 100 µM and the TGI [54] was greater than 100 µM. It also gave a TGI [55] greater than 100 µM, a TGI [56] greater than 100 µM and a TGI [57] greater than 100 µM.
`CNCCC=C1c2ccccc2CCc2ccccc21` showed a TGI [1] of 30.2 µM, a TGI [2] of 29.6 µM and a TGI [3] of 51.1 µM. The TGI [4] was 28.2 µM, the TGI [5] was 38 µM and the TGI [6] was 29.2 µM. For the same compound, the TGI [7] was 30.4 µM, the TGI [8] was 34.6 µM and the TGI [9] was 28.6 µM. The TGI [10] was 32.3 µM, the TGI [11] was 28 µM and the TGI [12] was 30.5 µM. The TGI [13] was 29.4 µM, the TGI [14] was 21 µM and the TGI [15] was 32.7 µM. It also gave a TGI [58] of 30.7 µM, a TGI [16] of 29.3 µM and a TGI [17] of 28.8 µM. For the same compound, the TGI [18] was 29.2 µM, the TGI [19] was 27 µM and the TGI [20] was 29.6 µM. For the same compound, the TGI [21] was 31.7 µM, the TGI [22] was 27.4 µM and the TGI [23] was 18.2 µM. It also gave a TGI [24] of 44.1 µM, a TGI [25] of 29.9 µM and a TGI [26] of 19.9 µM. It also gave a TGI [28] of 30.3 µM, a TGI [29] of 28.9 µM and a TGI [30] of 28.2 µM. For the same compound, the TGI [31] was 27.7 µM, the TGI [32] was 25.5 µM and the TGI [33] was 28.3 µM. It also gave a TGI [34] of 31.6 µM, a TGI [35] of 27.8 µM and a TGI [36] of 29.1 µM. It also gave a TGI [37] of 32.8 µM, a TGI [38] of 16.1 µM and a TGI [39] of 30.2 µM. For the same compound, the TGI [40] was 23.6 µM, the TGI [41] was 26.7 µM and the TGI [42] was 27.7 µM. It also gave a TGI [43] of 22.6 µM, a TGI [59] of 31.7 µM and a TGI [44] of 27.6 µM. It also gave a TGI [45] of 30.4 µM, a TGI [46] of 32.1 µM and a TGI [47] of 23.5 µM. For the same compound, the TGI [48] was 29.2 µM, the TGI [49] was greater than 51.9 µM and the TGI [50] was 28.5 µM. For the same compound, the TGI [51] was 28.8 µM, the TGI [52] was 29.2 µM and the TGI [53] was 29 µM. For the same compound, the TGI [54] was 27.8 µM, the TGI [55] was 25.2 µM and the TGI [56] was 14.7 µM. For the same compound, the TGI [57] was 21.6 µM.

From PubChem BioAssay (NCI)
